Reference: patent US20030194738A1, “Antisense oligonucleotide compositions and methods for the modulation of activating protein 1” (priority 1997, published 2003)
Strand notation (5' to 3'): a small letter for the sugar, then the base; units joined by * are phosphorothioate-linked, units joined directly phosphodiester-linked; [ ] holds rarer units or linkages, { } end groups; capitals alone tell only the bases. d = 2'-deoxy (DNA)

Columns and labels:
c-fos mRNA = c-fos mRNA expression in TPA-induced A549 cells, Northern blotting; assay type: cell-based, human; conditions: for c-fos mRNA % CONTROL: 400 nM oligonucleotide with LIPOFECTIN, control is TPA induction, at 1 hour, in A549 cells; for c-fos (expression, modified oligonucleotides): Table 10, TPA - no oligo = 100, basal = 3; for inhibition of c-fos mRNA expression: 400 nM oligonucleotide, TPA-induced A549 cells
Experimental: (§1) In order to evaluate the activity of potential c-fos and c-jun modulating oligonucleotides, A549 cells were grown in T-75 flasks until 80-90% confluent. (Cell line A549 is available from, inter alia, the American Type Culture Collection, Rockville, Md., as ATCC No. CCL-185.) At this time, the cells were washed twice with 10 mL of media (DMEM), followed by the addition of 5 mL of DMEM containing 20 μg/mL of LIPOFECTIN™ (i.e., DOTMA/DOPE (N-[1-(2,3-dioleyloxy)propyl]-N,N,N-[…] chloride/dioleoylphosphatidyl ethanolamine)). The oligonucleotides were added from a 10 μM stock solution to a final concentration of 400 nM, and the two solutions were mixed by swirling the flasks. After 4 hours at 37° C., the medium was replaced with DMEM containing 10% serum. At this point, 1 μM 12-O-tetradecanoylphorbol 13-acetate (TPA) was added to induce expression of c-fos and c-jun. Cells were extracted in guanidinium one hour later, and the c-fos and c-jun mRNA expression was determined by Northern blotting. Probes for human c-jun and c-fos were PCR products prepared using primers based on the published sequences thereof (respectively, Hattori et al., Proc. Natl. Acad. Sci. U.S.A., 1988, 85:9148, and Van Straaten et al., Proc. Natl. Acad. Sci. U.S.A., 1983, 80:3183).
Finally, it can also be seen from Table 5 that neither active oligonucleotide has any detectable effect on mRNA levels of the other active oligonucleotide's target.
Once oligonucleotides that modulate c-Fos or c-Jun are identified, derivative or modified oligonucleotides having the same sequence thereas are prepared. In order to evaluate the effect of chemical modifications to oligonucleotides to c-fos and c-jun, the modified oligonucleotides described in Tables 8 and 9 were prepared. The effect of the c-fos-targeted oligonucleotides on c-fos RNA levels were evaluated as described in Examples 2-3. […] Other modified oligonucleotides of the invention are evaluated in like fashion. In order to evaluate the effect of PNA antisense analogs, the PNA analogs of the invention are introduced into appropriate cell lines by microinjection according to the method of Hanvey et al. (Science, 1992, 258:1481). Intracellular delivery of PNA analogs is confirmed by the use of a fluorescently tagged PNA antisense analog conjugate such as, e.g., ISIS 14240.

c-jun mRNA = c-jun mRNA expression in TPA-induced A549 cells, Northern blotting; assay type: cell-based, human; conditions: for c-jun mRNA % CONTROL: 400 nM oligonucleotide with LIPOFECTIN, control is TPA induction, at 1 hour, in A549 cells; for inhibition of c-jun mRNA expression: 400 nM oligonucleotide, TPA-induced A549 cells
Experimental: as §1, with “The oligonucleotides were added from a 10 μM stock solution to a final concentration of 400 nM, and the two solutions were mixed by swirling the flasks.” left out

Row | Substance | c-fos mRNA % CONTROL (c-fos mRNA) [% CONTROL] | further results
1 | ACC-GTG-GGA-ATG-AAG-TTG-GC (ACCGTGGGAATGAAGTTGGC; antisense; all phosphorothioate, sugars by position and methylation of C not given here) [ISIS 10632] | 63 | –
2 | TTG-CAG-GCA-GGT-CGG-TGA-GC (TTGCAGGCAGGTCGGTGAGC; antisense; all phosphorothioate, sugars by position and methylation of C not given here) [ISIS 10634] | 42 | –
3 | CGC-ACC-TCC-ACT-CCC-GCC-TC (dC*dG*dC*dA*dC*dC*dT*dC*dC*dA*dC*dT*dC*dC*dC*dG*dC*dC*dT*dC; antisense) [ISIS 10571] | – | c-jun mRNA % CONTROL (c-jun mRNA): 100 % CONTROL
4 | CCC-TCC-CAG-GCT-CAA-GTC-AT (CCCTCCCAGGCTCAAGTCAT; antisense; DNA, all phosphorothioate, methylation of C not given here) [ISIS 10646] | 100 | –
5 | CGG-TCA-CTG-CTC-GTT-CGC-TG (CGGTCACTGCTCGTTCGCTG; antisense; all phosphorothioate, sugars by position and methylation of C not given here) [ISIS 10629] | 72 | –
6 | A^SA^SG^ST^SC^SC^ST^ST^SG^SA^SG^SG^SC^SC^SChu SA^SC^SA^SG^SC (AAGTCCTTGAGGCCCACAGC; all phosphorothioate, sugars by position and methylation of C not given here; further chemistry not fully specified) [ISIS 11200] | – | effect on c-fos mRNA levels during TPA induction (in words) (c-fos mRNA; A549 cells): some enhancement of c-fos modulation; c-fos (expression, modified oligonucleotides) (c-fos mRNA; A549 cells): 5
7 | GCT-GCG-CCG-CCG-ACG-TGA-CG (dG*dC*dT*dG*dC*dG*dC*dC*dG*dC*dC*dG*dA*dC*dG*dT*dG*dA*dC*dG; antisense) [ISIS 10578] | – | c-jun mRNA % CONTROL (c-jun mRNA): 37 % CONTROL
8 | ACC-AGC-CCG-GGA-GCC-ACA-GG (dA*dC*dC*dA*dG*dC*dC*dC*dG*dG*dG*dA*dG*dC*dC*dA*dC*dA*dG*dG; antisense) [ISIS 10572] | – | c-jun mRNA % CONTROL (c-jun mRNA): 39 % CONTROL
9 | CCC-CCA-CTT-CCG-CCC-ACT-AT (CCCCCACTTCCGCCCACTAT; antisense; DNA, all phosphorothioate, methylation of C not given here) [ISIS 10644] | 104 | –
10 | AGC-TCC-CTC-CTC-CGG-TTG-CG (AGCTCCCTCCTCCGGTTGCG; antisense; all phosphorothioate, sugars by position and methylation of C not given here) [ISIS 10633] | 24 | inhibition of c-fos mRNA expression (c-fos mRNA): 76%
11 | A^SA^SG^ST^SC^SC^ST^ST^SG^SA^SG^SG^SC^SC^SC^SA^SC^SA^SG^SC (antisense AAGTCCTTGAGGCCCACAGC; all phosphorothioate, sugars by position and methylation of C not given here) [ISIS 11538] | – | c-fos (expression, modified oligonucleotides) (c-fos mRNA; A549 cells): 15
12 | CCC-CTC-CAG-CAG-CTA-CCC-TT (CCCCTCCAGCAGCTACCCTT; antisense; all phosphorothioate, sugars by position and methylation of C not given here) [ISIS 10640] | 87 | –
13 | TGG-CAC-GGA-GCG-GGC-TGT-CT (TGGCACGGAGCGGGCTGTCT; antisense; all phosphorothioate, sugars by position and methylation of C not given here) [ISIS 10635] | 12 | inhibition of c-fos mRNA expression (c-fos mRNA): 88%
14 | TGC-CCC-TCA-GCC-CCC-GAC-GG (dT*dG*dC*dC*dC*dC*dT*dC*dA*dG*dC*dC*dC*dC*dC*dG*dA*dC*dG*dG; antisense) [ISIS 10583] | – | c-jun mRNA % CONTROL (c-jun mRNA): 20 % CONTROL; inhibition of c-jun mRNA expression (c-jun mRNA): 80%
15 | CAT-CGT-GGC-GGT-TAG-GCA-AA (CATCGTGGCGGTTAGGCAAA; antisense; all phosphorothioate, sugars by position and methylation of C not given here) [ISIS 10630] | 91 | –
16 | CGC-CCC-GCC-GCC-GCT-GCT-CA (dC*dG*dC*dC*dC*dC*dG*dC*dC*dG*dC*dC*dG*dC*dT*dG*dC*dT*dC*dA; antisense) [ISIS 10579] | – | c-jun mRNA % CONTROL (c-jun mRNA): 41 % CONTROL
17 | CCT-GCC-TCG-GCC-TCC-CAA-AG (CCTGCCTCGGCCTCCCAAAG; antisense; DNA, all phosphorothioate, methylation of C not given here) [ISIS 10643] | 39 | –
18 | GCC-ACA-CTC-AGT-GCA-ACT-CT (dG*dC*dC*dA*dC*dA*dC*dT*dC*dA*dG*dT*dG*dC*dA*dA*dC*dT*dC*dT; antisense) [ISIS 10570] | – | c-jun mRNA % CONTROL (c-jun mRNA): 62 % CONTROL
19 | GAG-AAC-ATC-ATC-GTG-GCG-GT (GAGAACATCATCGTGGCGGT; antisense; all phosphorothioate, sugars by position and methylation of C not given here) [ISIS 10631] | 118 | –
20 | TGC-TGC-TGC-CCT-TGC-GGT-GG (TGCTGCTGCCCTTGCGGTGG; antisense; all phosphorothioate, sugars by position and methylation of C not given here) [ISIS 10636] | 42 | –
21 | TGC-TCG-CTG-CAC-ATG-CGG-TT (TGCTCGCTGCACATGCGGTT; antisense; all phosphorothioate, sugars by position and methylation of C not given here) [ISIS 10628] | 79 | –
22 | GGT-GCC-GGC-TGC-CTC-CCC-TT (GGTGCCGGCTGCCTCCCCTT; antisense; all phosphorothioate, sugars by position and methylation of C not given here) [ISIS 10638] | 22 | inhibition of c-fos mRNA expression (c-fos mRNA): 78%
23 | CGC-GCC-CGG-CCT-GAA-AAT-TT (CGCGCCCGGCCTGAAAATTT; antisense; DNA, all phosphorothioate, methylation of C not given here) [ISIS 10642] | 87 | –
24 | GTG-TCT-CGC-CGG-GCA-TCT-CG (dG*dT*dG*dT*dC*dT*dC*dG*dC*dC*dG*dG*dG*dC*dA*dT*dC*dT*dC*dG; antisense) [ISIS 10580] | – | c-jun mRNA % CONTROL (c-jun mRNA): 19 % CONTROL; inhibition of c-jun mRNA expression (c-jun mRNA): 81%
25 | TCC-CGT-CCC-CAG-AAG-CAG-TA (TCCCGTCCCCAGAAGCAGTA; antisense; DNA, all phosphorothioate, methylation of C not given here) [ISIS 10641] | 68 | –
26 | TGG-TGC-CTG-CGT-GAT-ACT-CG (TGGTGCCTGCGTGATACTCG; antisense; DNA, all phosphorothioate, methylation of C not given here) [ISIS 10645] | 56 | –
27 | CCT-CAC-AGG-GCC-AGC-AGC-GT (CCTCACAGGGCCAGCAGCGT; antisense; all phosphorothioate, sugars by position and methylation of C not given here) [ISIS 10637] | 35 | –
28 | CCC-CCG-ACC-GTC-TCT-CTT-CA (dC*dC*dC*dC*dC*dG*dA*dC*dC*dG*dT*dC*dT*dC*dT*dC*dT*dT*dC*dA; antisense) [ISIS 10581] | – | c-jun mRNA % CONTROL (c-jun mRNA): 24 % CONTROL; inhibition of c-jun mRNA expression (c-jun mRNA): 76%
